Results on seven compounds are retold here after US4166114A, “Aminoglycoside antibiotic derivatives and method of use” (Shionogi & Co., Ltd., priority 1976, dated 1979).

For data set [1] the following is noted: literature (Kawaguchi et al.; Fujisawa et al.); cited from earlier work.
Data set [2] relates to kanamycin resistant bacteria. As to conditions: literature (Kawaguchi et al.; Fujisawa et al.); cited from earlier work.
Another data set concerns Proteus mirabilis TB-617. The experiment in a line: MIC (minimum inhibitory concentration). It counts as cell-based.
The subject of another data set is Escherichia coli TB-705. The experiment in a line: MIC (minimum inhibitory concentration). Type of data set: cell-based. Conditions: TB705, Table 3.
Data set [3] relates to Pseudomonas aeruginosa PP-6. Description: MIC (minimum inhibitory concentration). Conditions: tobramycin resistant organism.
Data set [4] has as its system Escherichia coli W-677/JR 214. Description: MIC (minimum inhibitory concentration). As to conditions: tobramycin resistant organism.
The test system of data set [5] is Klebsiella pneumoniae Kl-38. The experiment in a line: MIC (minimum inhibitory concentration).
Data set [6] relates to Staphylococcus aureus 80285. Description: MIC (minimum inhibitory concentration).
Data set [7] deals with Enterobacter cloacae CI-83. Description: MIC (minimum inhibitory concentration). Conditions: CI83.
For data set [8], the system named is Serratia marcescens MA-26. The experiment in a line: MIC (minimum inhibitory concentration). As to conditions: MA26.
For data set [9], the system named is Citrobacter freundii Ct-31. The experiment in a line: MIC (minimum inhibitory concentration). As to conditions: CT31.
A further data set relates to Proteus rettgeri Ret 33. Description: MIC (minimum inhibitory concentration). Conditions: Providencia rettgeri, RET33.
In data set [10] the test system is Pseudomonas aeruginosa TM-121. The experiment in a line: MIC (minimum inhibitory concentration).
Data set [11] concerns Staphylococcus aureus ATCC 25923. Description: MIC (minimum inhibitory concentration).
The test system of data set [12] is Escherichia coli W-677/JR 762. Description: MIC (minimum inhibitory concentration).
The mark [13] stands for this setting: Proteus mirabilis, TB617, Table 3, read-out: MIC.
Setting [14] is: Pseudomonas aeruginosa, PP6, Table 3.
The mark [15] stands for this setting: Escherichia coli, W677/JR214, Table 3.
[16] abbreviates: Klebsiella pneumoniae, KL38, Table 3.
Setting [17] is: Proteus mirabilis, TB617, Table 2, read-out: MIC.
[18] abbreviates: Pseudomonas aeruginosa, PP6, Table 2.
The mark [19] stands for this setting: Staphylococcus aureus, ATCC25923.
The mark [20] stands for this setting: Escherichia coli, W677/JR214, Table 2.
Where [21] appears, read: Klebsiella pneumoniae, KL38, Table 2.
The mark [22] stands for this setting: Table 2, tobramycin resistant organism.

≈ marks a conversion by molar mass, not a printed value. Like-named read-outs stand apart in the source and are kept apart here. Some results are limits rather than exact numbers.

In the case of `NCC[C@H](O)C(=O)N[C@@H]1C[C@H](N)[C@@H](O[C@H]2O[C@H](CN)[C@@H](O)[C@H](O)[C@H]2O)[C@H](O)[C@H]1O[C@H]1O[C@H](CO)[C@@H](O)[C@H](N)[C@H]1O` [Amikacin, amikacin], the “toxicity compared with kanamycin” value in [1] was “approximately the same degree of the toxicity as kanamycin”. For the same compound, the “effectiveness against kanamycin resistant bacteria” value in [2] is on record as “effective against kanamycin resistant bacteria”.
For the compound `NC[C@H]1O[C@H](O[C@H]2[C@H](O)[C@@H](O[C@H]3O[C@H](CO)[C@@H](O)[C@H](N)[C@H]3O)[C@H](NC(=O)C3(O)CCNC3)C[C@@H]2N)[C@H](O)[C@@H](O)[C@@H]1O` (some centres unmarked) [KM-A der., 1-N-(3-hydroxypyrrolidine-3-carbonyl)-kanamycin A], the MIC (as a rule, the least concentration at which growth counts as inhibited) in the data set on Proteus mirabilis TB-617 (setting [13]) was determined as 6.25 µg/mL (≈ 10.5 µM); against Escherichia coli TB-705, 25 µg/mL (≈ 41.8 µM); in data set [3] (setting [14]) it was 12.5 µg/mL (≈ 20.9 µM); in data set [4] (setting [15]), 6.25 µg/mL (≈ 10.5 µM); in [5] (setting [16]), 3.13 µg/mL (≈ 5.24 µM); in [6], 12.5 µg/mL (≈ 20.9 µM). Also, the minimal inhibitory concentration (MIC) in data set [7] was found to be 3.13 µg/mL (≈ 5.24 µM); in data set [8], 6.25 µg/mL (≈ 10.5 µM); in [9] it was 3.13 µg/mL (≈ 5.24 µM); in the data set on Proteus rettgeri Ret 33, 1.56 µg/mL (≈ 2.61 µM).
For the compound `NC[C@H]1O[C@H](O[C@H]2[C@H](O)[C@@H](O[C@H]3O[C@H](CO)[C@@H](O)[C@H](N)[C@H]3O)[C@H](N)C[C@@H]2N)[C@H](O)[C@@H](O)[C@@H]1O` [KM-A, kanamycin A], the MIC was > 200 µg/mL with Proteus mirabilis TB-617 (setting [17]); > 100 µg/mL in the data set on Proteus mirabilis TB-617 (setting [13]); > 100 µg/mL with Escherichia coli TB-705; 200 µg/mL (≈ 413 µM) in data set [3] (setting [18]); > 100 µg/mL in data set [3] (setting [14]); > 200 µg/mL in data set [10] (Pseudomonas aeruginosa, TM121). Moreover, the MIC in [11] (setting [19]) is 6.25 µg/mL (≈ 12.9 µM); in data set [12] (Escherichia coli, W677/JR762), > 200 µg/mL; in data set [4] (setting [20]), > 200 µg/mL; in [4] (setting [15]), > 100 µg/mL; in [5] (setting [21]), > 200 µg/mL; in data set [5] (setting [16]), > 100 µg/mL. Further, the MIC (in [6]; in [7]; in [8]; in [9]; against Proteus rettgeri Ret 33) was > 100 µg/mL in each case.
`CN[C@@H]1[C@@H](O)[C@@H](O[C@@H]2[C@@H](O)[C@H](O[C@H]3OC(CN)=CC[C@H]3N)[C@@H](N)C[C@H]2N)OC[C@]1(C)O` [SSM, sisomicin]: the MIC with Proteus mirabilis TB-617 (setting [17]) stood at 12.5 µg/mL (≈ 27.9 µM); in data set [3] (setting [18]) it was 200 µg/mL (≈ 447 µM); in data set [10] (Pseudomonas aeruginosa, TM121) it was 200 µg/mL (≈ 447 µM); in data set [11] (setting [19]), 1.56 µg/mL (≈ 3.49 µM); in [12] (Escherichia coli, W677/JR762), 50 µg/mL (≈ 112 µM); in data set [4] (setting [20]) it was 25 µg/mL (≈ 55.9 µM). In data set [5] (setting [21]), this compound returned an MIC of 0.39 µg/mL (≈ 0.871 µM).
On to `NC[C@H]1O[C@H](O[C@H]2[C@H](O)[C@@H](O[C@H]3O[C@H](CO)[C@@H](O)[C@H](N)[C@H]3O)[C@H](NC(=O)C3(O)CCNCC3)C[C@@H]2N)[C@H](N)C[C@@H]1O` [TOB der.], for which the MIC in the data set on Proteus mirabilis TB-617 (setting [17]) was 6.25 µg/mL (≈ 10.5 µM); in the data set with Proteus mirabilis TB-617 (setting [13]) it was 1.56 µg/mL (≈ 2.62 µM); in the data set with Escherichia coli TB-705, 3.13 µg/mL (≈ 5.26 µM); in data set [3] (setting [18]) it was 6.25 µg/mL (≈ 10.5 µM); in data set [3] (setting [14]) it was 3.13 µg/mL (≈ 5.26 µM); in data set [10] (Pseudomonas aeruginosa, TM121), 12.5 µg/mL (≈ 21 µM). Further, the MIC in data set [11] (setting [19]) came to 1.56 µg/mL (≈ 2.62 µM); in data set [12] (Escherichia coli, W677/JR762) it was 6.25 µg/mL (≈ 10.5 µM); in [4] (setting [20]), 1.56 µg/mL (≈ 2.62 µM); in data set [4] (setting [15]), 0.78 µg/mL (≈ 1.31 µM); in data set [5] (setting [21]), 1.56 µg/mL (≈ 2.62 µM); in data set [5] (setting [16]), 0.78 µg/mL (≈ 1.31 µM). Further, the minimum inhibitory concentration (MIC) is 0.39 µg/mL (≈ 0.656 µM) in [6]; 0.78 µg/mL (≈ 1.31 µM) in data set [7]; 12.5 µg/mL (≈ 21 µM) in data set [8]; 0.78 µg/mL (≈ 1.31 µM) in data set [9]; 0.78 µg/mL (≈ 1.31 µM) with Proteus rettgeri Ret 33.
Regarding `NC[C@H]1O[C@H](O[C@H]2[C@H](O)[C@@H](O[C@H]3O[C@H](CO)[C@@H](O)[C@H](N)[C@H]3O)[C@H](N)C[C@@H]2N)[C@H](N)C[C@@H]1O` [TOB, tobramycin], the MIC was 12.5 µg/mL (≈ 26.7 µM) in the data set with Proteus mirabilis TB-617 (setting [17]); 12.5 µg/mL (≈ 26.7 µM) with Proteus mirabilis TB-617 (setting [13]); 6.25 µg/mL (≈ 13.4 µM) against Escherichia coli TB-705; 50 µg/mL (≈ 107 µM) in [3] (setting [18]); > 100 µg/mL in data set [3] (setting [14]); 100 µg/mL (≈ 214 µM) in [10] (Pseudomonas aeruginosa, TM121). Further, the MIC in data set [11] (setting [19]) was determined as 1.56 µg/mL (≈ 3.34 µM); in [12] (Escherichia coli, W677/JR762), 100 µg/mL (≈ 214 µM); in [4] (setting [20]), 50 µg/mL (≈ 107 µM); in [4] (setting [15]) it was 100 µg/mL (≈ 214 µM); in data set [5] (setting [21]), 3.13 µg/mL (≈ 6.69 µM); in data set [5] (setting [16]) it was 1.56 µg/mL (≈ 3.34 µM). Further, the MIC in [6] came out at 0.78 µg/mL (≈ 1.67 µM); in [7], 0.78 µg/mL (≈ 1.67 µM); in data set [8] it was 50 µg/mL (≈ 107 µM); in data set [9], 3.13 µg/mL (≈ 6.69 µM); against Proteus rettgeri Ret 33, 1.56 µg/mL (≈ 3.34 µM).
gentamicin [GM]: the MIC against Proteus mirabilis TB-617 (Table 2) was 25 µg/mL; in data set [3] (Table 2) it was > 200 µg/mL; in data set [10] (setting [22]) it was 100 µg/mL; in data set [11] (Table 2), 0.78 µg/mL; in [12] (setting [22]), 100 µg/mL; in data set [4] (Table 2), 100 µg/mL. For the same compound, in data set [5] (Table 2), the MIC came to 0.78 µg/mL.
